Reference: patent EP4574818A1, “ONIUM SALT OF NITROGEN-CONTAINING HETEROARYL COMPOUND AND PEST CONTROL AGENT” (priority 2022, dated 2024)
Where two headings read alike, the source gives them in different places.

Tests used:
Format in all cases: in vivo
Spodoptera litura = assay: Efficacy test against Spodoptera litura (cabbage leaf immersion); details: 144 h, read-out: mortality of Spodoptera litura
Procedure: A cabbage leaf was immersed in the diluted solution for 30 seconds. The cabbage leaf was air-dried and then put in a petri dish, followed by leaving five second-instar larvae of Spodoptera litura therein. The petri dish was placed in a thermostatic chamber at a temperature of 25°C and a humidity of 60%. After six days had passed from leaving the larvae, life or death was assessed and the mortality was calculated. The test was repeated twice.

Plutella xylostella = assay: Efficacy test against Plutella xylostella (cabbage leaf immersion); details: 72 h
Procedure: The emulsion (II) was diluted with water at the same dilution ratio as the diluted solution (I), thereby obtaining a diluted solution (II). A cabbage leaf was immersed in each of the diluted solutions for 30 seconds. Each cabbage leaf after immersion was air-dried and then put in a petri dish, followed by leaving five second-instar larvae of Plutella xylostella therein. The petri dishes were placed in a thermostatic chamber at a temperature of 25°C and a humidity of 60%. After three days had passed from leaving the larvae, life or death was assessed and the mortality was calculated. The test was repeated twice.

Mythimna separata = assay: Efficacy test against Mythimna separata (treated artificial feed); details: 1 µl of emulsion (I) (5% by mass active ingredient) mixed with 0.8 g artificial feed; second-instar larvae; 25°C; after five days
Procedure: (§1) 5 parts by mass of a compound of the present invention, 93.6 parts by mass of dimethylformamide, and 1.4 parts by mass of polyoxyethylene alkyl aryl ether were mixed and dissolved to obtain an emulsion (I) containing 5% by mass of the active ingredient.
0.8 g of commercially-available artificial feed (Insect LFS, manufactured by Nosan Corporation) and 1 µl of the emulsion (I) were mixed well, and then 0.2 g of the mixture per treated area was packed into plastic test containers (each having a capacity of 1.4 ml) as test feeds.
Two second-instar larvae of Mythimna separata were left per treated area, and then the test containers were sealed with plastic covers. The test containers were placed in a thermostatic chamber at 25°C, and, after five days had passed therefrom, the mortality and the feed intake were measured. The test was repeated twice.
In addition, the test was carried out under the same conditions as described above, except that the emulsion (II) was used instead of the emulsion (I), and evaluated as a solvent control area.

Phyllotreta striolata = assay: Efficacy test against Phyllotreta striolata (sprayed bok-choy seedling); details: 168 h, read-out: mortality against the adults of Phyllotreta striolata
Procedure: as §1
The emulsion (I) was diluted with water such that the concentration of the compound of the present invention became 125 ppm by mass. The diluted solution was sprayed to a bok-choy seedling (at the 7th leafe stage) planted in a 3-sun pot. After air-dried, the bok-choy seedling was placed in a plastic cup, and ten adults of Phyllotreta striolata were left therein. The plastic cup was placed in a thermostatic chamber at a temperature of 25°C and a humidity of 65%. After seven days had passed from leaving the adults, life or death was assessed and the mortality was calculated. The test was repeated twice.

[1] = 125 ppm by mass, cabbage leaf immersed 30 seconds, second-instar larvae, 25°C, humidity 60%, after six days
[2] = 125 ppm by mass, cabbage leaf immersed 30 seconds, second-instar larvae of Plutella xylostella, 25°C, humidity 60%, after three days, read-out: mortality
[3] = 125 ppm by mass, sprayed to bok-choy seedling, adults, 25°C, humidity 65%, after seven days

| Structure (SMILES) | mortality at 125 ppm (Spodoptera litura; [1]) [%] | mortality at 125 ppm (Plutella xylostella; [2]) [%] | mortality of Mythimna separata or feed intake relative to the feed intake at the solvent control area (Mythimna separata) | further results |
| --- | --- | --- | --- | --- |
| O=C([N-][n+]1ccccc1)c1cc(Cl)nc(Oc2ccc(OC(F)(F)C(F)F)cc2)c1 [Compound 4] | ≥ 80 | ≥ 80 | 100% mortality of Mythimna separata or 10% or less of the feed intake | – |
| O=C([N-][n+]1ccccc1)c1cc(Cl)nc(Oc2ccc(OC(F)(F)C(F)OC(F)(F)C(F)(F)C(F)(F)F)cc2)c1 (centres unmarked) [Compound 20] | – | – | – | mortality at 125 ppm (Spodoptera litura): ≥ 80%; mortality at 125 ppm (Phyllotreta striolata): ≥ 80%; mortality at 125 ppm (Plutella xylostella; Plutella xylostella): ≥ 80% |
| O=C([N-][n+]1cccc(F)c1)c1cc(Cl)nc(Oc2ccc(OC(F)(F)C(F)F)cc2)c1 [Compound 11] | ≥ 80 | ≥ 80 | – | – |
| O=C([N-][n+]1ccccc1)c1cc(Cl)nc(Oc2ccc(C3(C(F)(F)F)CC3)cc2)c1 [Compound 15] | ≥ 80 | ≥ 80 | – | – |
| CCn1c[n+]([N-]C(=O)c2cc(Cl)nc(Oc3ccc(OC(F)(F)F)cc3)c2)cn1 [Compound 165, (2-chloro-6-(4-(trifluoromethoxy)phenoxy)isonicotinoyl)(1-ethyl-1H-1,2,4-triazol-4-ium-4-yl)amide] | ≥ 80 | ≥ 80 | 100% mortality of Mythimna separata or 10% or less of the feed intake | – |
| CC(C)n1c[n+]([N-]C(=O)c2cc(Cl)nc(Oc3ccc(OC(F)(F)C(F)(F)F)cc3)c2)cn1 [Compound 19] | ≥ 80 | ≥ 80 | – | mortality at 125 ppm (Phyllotreta striolata; [3]): ≥ 80% |
| Cn1c[n+]([N-]C(=O)c2cc(Cl)nc(Oc3ccc(OC(F)(F)F)cc3)c2)cn1 [Compound 2] | ≥ 80 | – | 100% mortality of Mythimna separata or 10% or less of the feed intake | – |
| COC(=O)c1cc(C(=O)[N-][n+]2ccccc2)cc(Oc2ccc(OC(F)(F)C(F)(F)F)cc2)n1 [Compound 220] | – | ≥ 80 | – | – |
| COc1cc[n+]([N-]C(=O)c2cc(Cl)nc(Oc3ccc(OC(F)(F)C(F)(F)F)cc3)c2)cc1 [Compound 6] | ≥ 80 | ≥ 80 | – | – |
| O=C([N-][n+]1ccccc1)c1cc(Cl)nc(Oc2ccc(SC(F)(F)F)cc2)c1 [Compound 25, (2-chloro-6-(4-((trifluoromethyl)thio)phenoxy)isonicotinoyl) (pyridin-1-ium-1-yl)amide] | ≥ 80 | ≥ 80 | – | mortality at 125 ppm (Phyllotreta striolata; [3]): ≥ 80% |
| N#Cc1cc(C(=O)[N-][n+]2ccccc2)cc(Oc2ccc(OC(F)(F)C(F)(F)F)cc2)n1 [Compound 14] | ≥ 80 | ≥ 80 | – | – |
| O=C([N-][n+]1ccccc1)c1cc(Cl)nc(Oc2ccc(C3CC3(F)F)cc2)c1 (centres unmarked) [Compound 213] | – | – | 100% mortality of Mythimna separata or 10% or less of the feed intake | – |
| CCn1c[n+]([N-]C(=O)c2cc(Cl)nc(Oc3ccc(OC(F)(F)C(F)OC(F)(F)C(F)(F)C(F)(F)OC(F)(F)F)cc3)c2)cn1 (centres unmarked) [Compound 23] | – | – | – | mortality at 125 ppm (Spodoptera litura): ≥ 80%; mortality at 125 ppm (Phyllotreta striolata): ≥ 80%; mortality at 125 ppm (Plutella xylostella; Plutella xylostella): ≥ 80% |
| Cc1cc[n+]([N-]C(=O)c2cc(Cl)nc(Oc3ccc(OC(F)(F)C(F)(F)F)cc3)c2)cc1 [Compound 5] | ≥ 80 | ≥ 80 | – | – |
| O=C([N-][n+]1ccccc1)c1cc(Cl)nc(Oc2ccc(OC(F)(F)C(F)OC(F)(F)F)cc2)c1 (centres unmarked) [Compound 16] | ≥ 80 | ≥ 80 | – | – |
| CCn1c[n+]([N-]C(=O)c2cc(Cl)nc(Oc3ccc(OC(F)(F)C(F)OC(F)(F)C(F)(F)C(F)(F)F)cc3)c2)cn1 (centres unmarked) [Compound 21] | – | – | – | mortality at 125 ppm (Spodoptera litura): ≥ 80%; mortality at 125 ppm (Phyllotreta striolata): ≥ 80%; mortality at 125 ppm (Plutella xylostella; Plutella xylostella): ≥ 80% |
| CCn1c[n+]([N-]C(=O)c2cc(Cl)nc(Oc3ccc4nc(C(F)(F)F)ccc4c3)c2)cn1 [Compound 216] | – | – | 100% mortality of Mythimna separata or 10% or less of the feed intake | – |
| N#Cc1ccc(Oc2cc(C(=O)[N-][n+]3ccccc3)cc(Cl)n2)cc1 [Compound 209] | – | – | 100% mortality of Mythimna separata or 10% or less of the feed intake | – |

| Structure (SMILES) | mortality at 125 ppm (Spodoptera litura; [1]) [%] | mortality at 125 ppm (Plutella xylostella; [2]) [%] | mortality of Mythimna separata or feed intake relative to the feed intake at the solvent control area (Mythimna separata) | further results |
| --- | --- | --- | --- | --- |
| O=C([N-][n+]1ccccc1)c1cc(Cl)nc(Oc2ccc(OC(F)(F)C(F)OC(F)(F)C(F)(F)C(F)(F)OC(F)(F)F)cc2)c1 (centres unmarked) [Compound 22] | – | – | – | mortality at 125 ppm (Spodoptera litura): ≥ 80%; mortality at 125 ppm (Phyllotreta striolata): ≥ 80%; mortality at 125 ppm (Plutella xylostella; Plutella xylostella): ≥ 80% |
| Cn1c[n+]([N-]C(=O)c2cc(Cl)nc(Oc3ccc(OC(F)(F)C(F)(F)F)cc3)c2)cn1 [Compound 8] | ≥ 80 | – | – | – |
| CCn1c[n+]([N-]C(=O)c2cc(Cl)nc(Oc3ccc(C4CC4(Cl)Cl)cc3)c2)cn1 (centres unmarked) [Compound 210] | – | – | 100% mortality of Mythimna separata or 10% or less of the feed intake | – |
| O=C([N-][n+]1ccccc1)c1cc(Oc2ccc(OC(F)(F)F)cc2)nc(-c2ccc(F)cc2)c1 [Compound 207] | ≥ 80 | ≥ 80 | 100% mortality of Mythimna separata or 10% or less of the feed intake | – |
| O=C([N-][n+]1ccccc1)c1cc(Oc2ccc(OC(F)(F)C(F)(F)F)cc2)nc(C2CC2)c1 [Compound 215, (2-cyclopropyl-6-(4-(perfluoroethoxy)phenoxy)isonicotinoyl)(pyridin-1-ium-1-yl)amide] | ≥ 80 | ≥ 80 | 100% mortality of Mythimna separata or 10% or less of the feed intake | – |
| O=C([N-][n+]1ccccc1)c1cc(Cl)nc(Oc2ccc(C3CC3(Cl)Cl)cc2)c1 (centres unmarked) [Compound 211] | – | – | 100% mortality of Mythimna separata or 10% or less of the feed intake | mortality at 125 ppm (Phyllotreta striolata; [3]): ≥ 80% |
| O=C([N-][n+]1ccccc1)c1cc(Oc2ccc(OC(F)(F)F)cc2)nc(Oc2ccc(OC(F)(F)F)cc2)c1 [Compound 208] | ≥ 80 | ≥ 80 | – | – |
| O=C([N-][n+]1ccccc1)c1cc(Br)nc(Oc2ccc(OC(F)(F)C(F)(F)F)cc2)c1 [Compound 12] | ≥ 80 | ≥ 80 | – | – |
| Cn1cc[n+]([N-]C(=O)c2cc(Cl)nc(Oc3ccc(OC(F)(F)C(F)(F)F)cc3)c2)c1 [Compound 9] | ≥ 80 | ≥ 80 | – | – |
| O=C([N-][n+]1ccccc1)c1cc(Oc2ccc(SC(F)(F)C(F)F)cc2)nc(-n2cccn2)c1 [Compound 221] | ≥ 80 | ≥ 80 | – | – |
| O=C([N-][n+]1ccccc1)c1cc(Br)nc(Oc2ccc(OC(F)(F)C(F)F)cc2)c1 [Compound 13] | ≥ 80 | ≥ 80 | – | – |
| O=C([N-][n+]1cnn(CC(F)(F)F)c1)c1cc(Cl)nc(Oc2ccc(OC(F)(F)C(F)(F)F)cc2)c1 [Compound 17] | ≥ 80 | ≥ 80 | – | – |
| O=C([N-][n+]1cnn(CC(F)F)c1)c1cc(Cl)nc(Oc2ccc(OC(F)(F)C(F)(F)F)cc2)c1 [Compound 18] | ≥ 80 | ≥ 80 | – | – |
| CCn1c[n+]([N-]C(=O)c2cc(I)nc(Oc3ccc(OC(F)(F)C(F)(F)F)cc3)c2)cn1 [Compound 218] | ≥ 80 | ≥ 80 | – | mortality at 125 ppm (Phyllotreta striolata; [3]): ≥ 80% |
| O=C([N-][n+]1ccccc1)c1cc(Cl)nc(Oc2cnn(C=C(F)C(F)(F)F)c2)c1 [Compound 217] | ≥ 80 | – | – | – |
| CCn1c[n+]([N-]C(=O)c2cc(Cl)nc(Oc3ccc(C4CC4(F)F)cc3)c2)cn1 (centres unmarked) [Compound 212] | – | – | 100% mortality of Mythimna separata or 10% or less of the feed intake | – |
| O=C([N-][n+]1ccccc1)c1cc(I)nc(Oc2ccc(OC(F)(F)C(F)(F)F)cc2)c1 [Compound 219, (2-iodo-6-(4-(perfluoroethoxy)phenoxy)isonicotinoyl)(pyridin-1-ium-1-yl)amide] | ≥ 80 | ≥ 80 | – | mortality at 125 ppm (Phyllotreta striolata; [3]): ≥ 80% |
